The values that follow are results of earlier work, collected in patent US11504327B1, “Method of preparing nanoparticles by hot-melt extrusion” (priority 2019, dated 2022).

For this data set the following is noted: polyethoxylated oleyl alcohols; Walters et al. 1993.

oleth-2: the “permeation enhancement of ibuprofen across human skin” value is on record as “most effective permeation enhancer”.

For oleth-20, the “permeation enhancement of ibuprofen across human skin” value is “worst”.
